Reference: BigSolDB 2.1

CC1=C(O)C(=O)C(C)O1 (configuration not stated)
solubility (mole fraction)
Conditions	283.15 K	288.15 K	293.15 K	298.15 K	303.15 K	308.15 K	313.15 K
in ethanol	0.12	0.151	0.188	0.234	0.287	0.351	0.427
in methanol	0.143	0.174	0.21	0.257	0.31	0.374	0.449
in n-butanol	0.0954	0.124	0.156	0.196	0.247	0.307	0.382
in n-hexane	0.0054	0.0073	0.0096	0.0125	0.0163	0.0211	0.0271
in n-propanol	0.11	0.138	0.174	0.216	0.268	0.332	0.408
in water	0.0091	0.015	0.0251	0.0408	0.0665	0.107	0.173
